From patent US20230398130A1, “METHODS AND COMPOSITIONS FOR DIFFERENTIATING STEM CELLS” (Massachusetts Institute of Technology, priority 2020, published 2023)

Tests used:
ISC-enriched organoids [1] = test: Primary screen, 384-well 2.5-D organoid differentiation (ENR+CD, 6 days): carbachol-induced lysozyme secretion (LYZ.S); assay type: cell-based, murine; conditions: primary screen; for Dose.FC.LYZ.S: FC vs plate median; for Z.LYZ.S: standard z score; for SSMD.LYZ.S: strictly standardized mean difference; for Dose.FC.LYZ.S (log 2 fold change): vs plate median
Excerpt: (§1) High-throughput screening.

ISC-enriched organoids [2] = test: Primary screen, 384-well 2.5-D organoid differentiation (ENR+CD, 6 days, Target Selective Inhibitor Library, vs whole-plate median): ATP (CellTiter-Glo 3D, CTG); conditions: for Dose.FC.CTG: FC vs plate median; for SSMD.CTG: strictly standardized mean difference; for Dose.FC.CTG (log 2 fold change): vs plate median
ISC-enriched organoids [3] = test: Primary screen, 384-well 2.5-D organoid differentiation (ENR+CD, 6 days): basal lysozyme secretion (LYZ.NS); assay type: cell-based, murine; conditions: for Dose.FC.LYZ.NS: FC vs plate median; for SSMD.LYZ.NS: strictly standardized mean difference; for Dose.FC.LYZ.NS (log 2 fold change): vs plate median
Excerpt: as §1

[4] = 1st of the 4 dose lines of the treatment (dose not given)
[5] = 2nd of the 4 dose lines of the treatment (dose not given)
[6] = 3rd of the 4 dose lines of the treatment (dose not given)
[7] = 4th of the 4 dose lines of the treatment (dose not given)
[8] = Dose 0.08 uM, primary screen, standard z score
[9] = Dose 0.40 uM, primary screen, standard z score
[10] = Dose 2.00 uM, primary screen, standard z score
[11] = Dose 10.00 uM, primary screen, standard z score
[12] = primary screen, 1st of the 4 dose lines of the treatment (dose not given)
[13] = primary screen, 2nd of the 4 dose lines of the treatment (dose not given)
[14] = primary screen, 3rd of the 4 dose lines of the treatment (dose not given)
[15] = primary screen, 4th of the 4 dose lines of the treatment (dose not given)
[16] = Dose 0.08 uM, standard z score of FC
[17] = Dose 0.40 uM, standard z score of FC
[18] = Dose 2.00 uM, standard z score of FC
[19] = Dose 10.00 uM, standard z score of FC

With `O=C(O)CCc1ccc(NCc2cccc(Oc3ccccc3)c2)cc1` [GW9508] the Dose.FC.LYZ.S (ISC-enriched organoids [1]; Dose 0.08 uM) was 0.067 log 2 fold change, the Dose.FC.LYZ.S (ISC-enriched organoids [1]; Dose 0.40 uM) was 0.049 log 2 fold change and the Dose.FC.LYZ.S (ISC-enriched organoids [1]; Dose 2.00 uM) was 0.000 log 2 fold change. The Dose.FC.LYZ.S (ISC-enriched organoids [1]; Dose 10.00 uM) was −0.045 log 2 fold change, the Z.LYZ.S (ISC-enriched organoids [1]; [4]) was 0.434 and the Z.LYZ.S (ISC-enriched organoids [1]; [5]) was 0.316. The Z.LYZ.S (ISC-enriched organoids [1]; [6]) was 0.003, the Z.LYZ.S (ISC-enriched organoids [1]; [7]) was −0.289 and the SSMD.LYZ.S (ISC-enriched organoids [1]; [4]) was 0.329. For the same molecule, the SSMD.LYZ.S (ISC-enriched organoids [1]; [5]) was 0.225, the SSMD.LYZ.S (ISC-enriched organoids [1]; [6]) was 0.002 and the SSMD.LYZ.S (ISC-enriched organoids [1]; [7]) was −0.176. For the same molecule, the Dose.FC.CTG (ISC-enriched organoids [2]; Dose 0.08 uM, primary screen) was 0.063 log 2 fold change, the Z.CTG (ISC-enriched organoids [2]; [8]) was 0.151 and the Dose.FC.CTG (ISC-enriched organoids [2]; Dose 0.40 uM, primary screen) was 0.174 log 2 fold change. The Z.CTG (ISC-enriched organoids [2]; [9]) was 0.417, the Dose.FC.CTG (ISC-enriched organoids [2]; Dose 2.00 uM, primary screen) was −0.001 log 2 fold change and the Z.CTG (ISC-enriched organoids [2]; [10]) was −0.003. For the same molecule, the Dose.FC.CTG (ISC-enriched organoids [2]; Dose 10.00 uM, primary screen) was −0.059 log 2 fold change, the Z.CTG (ISC-enriched organoids [2]; [11]) was −0.140 and the SSMD.CTG (ISC-enriched organoids [2]; [12]) was 0.128. It also gave an SSMD.CTG (ISC-enriched organoids [2]; [13]) of 0.384, an SSMD.CTG (ISC-enriched organoids [2]; [14]) of −0.003 and an SSMD.CTG (ISC-enriched organoids [2]; [15]) of −0.134. For the same molecule, the Dose.FC.LYZ.NS (ISC-enriched organoids [3]; Dose 0.08 uM, primary screen) was 0.075 log 2 fold change, the Z.LYZ.NS (ISC-enriched organoids [3]; [8]) was 0.650 and the Dose.FC.LYZ.NS (ISC-enriched organoids [3]; Dose 0.40 uM, primary screen) was 0.019 log 2 fold change. For the same molecule, the Z.LYZ.NS (ISC-enriched organoids [3]; [9]) was 0.169, the Dose.FC.LYZ.NS (ISC-enriched organoids [3]; Dose 2.00 uM, primary screen) was −0.011 log 2 fold change and the Z.LYZ.NS (ISC-enriched organoids [3]; [10]) was −0.092. For the same molecule, the Dose.FC.LYZ.NS (ISC-enriched organoids [3]; Dose 10.00 uM, primary screen) was −0.040 log 2 fold change, the Z.LYZ.NS (ISC-enriched organoids [3]; [11]) was −0.350 and the SSMD.LYZ.NS (ISC-enriched organoids [3]; [12]) was 0.536. It also gave an SSMD.LYZ.NS (ISC-enriched organoids [3]; [13]) of 0.122, an SSMD.LYZ.NS (ISC-enriched organoids [3]; [14]) of −0.064 and an SSMD.LYZ.NS (ISC-enriched organoids [3]; [15]) of −0.358.
For `CNC(=O)c1ccccc1Nc1nc(Nc2ccc(N3CCOCC3)cc2OC)ncc1Cl` [TAE226 (NVP-TAE226)], the “Dose.FC.LYZ.S (log 2 fold change)” value (ISC-enriched organoids [1]; Dose 0.08 uM) was −0.333, the “Dose.FC.LYZ.S (log 2 fold change)” value (ISC-enriched organoids [1]; Dose 0.40 uM) was −0.376 and the “Dose.FC.LYZ.S (log 2 fold change)” value (ISC-enriched organoids [1]; Dose 2.00 uM) was −0.400. The “Dose.FC.LYZ.S (log 2 fold change)” value (ISC-enriched organoids [1]; Dose 10.00 uM) was −0.426, the “Z.CTG (standard z score)” value (ISC-enriched organoids [2]; Dose 0.08 uM, primary screen) was −1.127 and the “Dose.FC.CTG (log 2 fold change)” value (ISC-enriched organoids [2]; Dose 0.08 uM, primary screen) was −0.472. The “Z.CTG (standard z score)” value (ISC-enriched organoids [2]; Dose 0.40 uM, primary screen) was −2.689, the “Dose.FC.CTG (log 2 fold change)” value (ISC-enriched organoids [2]; Dose 0.40 uM, primary screen) was −1.126 and the “Z.CTG (standard z score)” value (ISC-enriched organoids [2]; Dose 2.00 uM, primary screen) was −3.068. The “Dose.FC.CTG (log 2 fold change)” value (ISC-enriched organoids [2]; Dose 2.00 uM, primary screen) was −1.284, the “Z.CTG (standard z score)” value (ISC-enriched organoids [2]; Dose 10.00 uM, primary screen) was −2.363 and the “Dose.FC.CTG (log 2 fold change)” value (ISC-enriched organoids [2]; Dose 10.00 uM, primary screen) was −0.989. For the same molecule, the “Z.LYZ.NS (standard z score)” value (ISC-enriched organoids [3]; Dose 0.08 uM, primary screen) was −2.226, the “Dose.FC.LYZ.NS (log 2 fold change)” value (ISC-enriched organoids [3]; Dose 0.08 uM, primary screen) was −0.256 and the “Z.LYZ.NS (standard z score)” value (ISC-enriched organoids [3]; Dose 0.40 uM, primary screen) was −2.650. For the same molecule, the “Dose.FC.LYZ.NS (log 2 fold change)” value (ISC-enriched organoids [3]; Dose 0.40 uM, primary screen) was −0.304, the “Z.LYZ.NS (standard z score)” value (ISC-enriched organoids [3]; Dose 2.00 uM, primary screen) was −2.813 and the “Dose.FC.LYZ.NS (log 2 fold change)” value (ISC-enriched organoids [3]; Dose 2.00 uM, primary screen) was −0.323. For the same molecule, the “Z.LYZ.NS (standard z score)” value (ISC-enriched organoids [3]; Dose 10.00 uM, primary screen) was −2.545 and the “Dose.FC.LYZ.NS (log 2 fold change)” value (ISC-enriched organoids [3]; Dose 10.00 uM, primary screen) was −0.292.
`CCCC(C)NC(=O)c1ccc(Cl)c(Cl)c1` (stereo not shown) [NSC 405020] showed a Dose.FC.LYZ.S (ISC-enriched organoids [1]; Dose 0.08 uM) of 0.014 log 2 fold change, a Dose.FC.LYZ.S (ISC-enriched organoids [1]; Dose 0.40 uM) of 0.093 log 2 fold change and a Dose.FC.LYZ.S (ISC-enriched organoids [1]; Dose 2.00 uM) of 0.002 log 2 fold change. It also gave a Dose.FC.LYZ.S (ISC-enriched organoids [1]; Dose 10.00 uM) of −0.061 log 2 fold change, a Dose.FC.CTG (ISC-enriched organoids [2]; Dose 0.08 uM, primary screen) of −0.059 log 2 fold change and a Z.CTG (ISC-enriched organoids [2]; [16]) of −0.140. For the same molecule, the Dose.FC.CTG (ISC-enriched organoids [2]; Dose 0.40 uM, primary screen) was −0.071 log 2 fold change, the Z.CTG (ISC-enriched organoids [2]; [17]) was −0.170 and the Dose.FC.CTG (ISC-enriched organoids [2]; Dose 2.00 uM, primary screen) was −0.059 log 2 fold change. The Z.CTG (ISC-enriched organoids [2]; [18]) was −0.141, the Dose.FC.CTG (ISC-enriched organoids [2]; Dose 10.00 uM, primary screen) was −0.058 log 2 fold change and the Z.CTG (ISC-enriched organoids [2]; [19]) was −0.138. The Dose.FC.LYZ.NS (ISC-enriched organoids [3]; Dose 0.08 uM, primary screen) was 0.008 log 2 fold change, the Z.LYZ.NS (ISC-enriched organoids [3]; [16]) was 0.071 and the Dose.FC.LYZ.NS (ISC-enriched organoids [3]; Dose 0.40 uM, primary screen) was −0.028 log 2 fold change. The Z.LYZ.NS (ISC-enriched organoids [3]; [17]) was −0.246, the Dose.FC.LYZ.NS (ISC-enriched organoids [3]; Dose 2.00 uM, primary screen) was 0.018 log 2 fold change and the Z.LYZ.NS (ISC-enriched organoids [3]; [18]) was 0.160. It also gave a Dose.FC.LYZ.NS (ISC-enriched organoids [3]; Dose 10.00 uM, primary screen) of −0.065 log 2 fold change and a Z.LYZ.NS (ISC-enriched organoids [3]; [19]) of −0.570.
